Measured values from the NIST ThermoML archive (doi:10.1021/je501130r).
± gives the expanded uncertainty stated by the source.

Conditions: Liquid, Closed cell (Static) method

Row | Compound | vapor or sublimation pressure (293.15 K) | vapor or sublimation pressure (303.15 K) | vapor or sublimation pressure (313.15 K)
1 | CC(F)(Cl)C(F)(F)F (stereo unspecified) [2-chloro-1,1,1,2-tetrafluoropropane] | 128.3 ± 3 kPa | 181.6 ± 3.1 kPa | 247.6 ± 3.1 kPa
2 | C=C(F)C(F)(F)F [2,3,3,3-tetrafluoro-1-propene] | 591.5 ± 3.5 kPa | 783.6 ± 3.8 kPa | 1018.9 ± 4.3 kPa
